According to US20240277631A1, “SMALL MOLECULE DRUG (ELP-004) TO PREVENT BONE LESIONS CAUSED BY MULTIPLE MYELOMA” (West Virginia University Board of Governors on behalf of …, priority 2023, published 2024):

Assays:
CYP2C8 = molecular target: T1, CYP2C8 (Homo sapiens, UniProt P10632); experiment: stability with recombinant CYP2C8; type: in vitro ADME; settings: recombinant CYP2C8, intrinsic clearance, read-out: Recombinant CYP CLINT
T1 sequence (P10632 1-490): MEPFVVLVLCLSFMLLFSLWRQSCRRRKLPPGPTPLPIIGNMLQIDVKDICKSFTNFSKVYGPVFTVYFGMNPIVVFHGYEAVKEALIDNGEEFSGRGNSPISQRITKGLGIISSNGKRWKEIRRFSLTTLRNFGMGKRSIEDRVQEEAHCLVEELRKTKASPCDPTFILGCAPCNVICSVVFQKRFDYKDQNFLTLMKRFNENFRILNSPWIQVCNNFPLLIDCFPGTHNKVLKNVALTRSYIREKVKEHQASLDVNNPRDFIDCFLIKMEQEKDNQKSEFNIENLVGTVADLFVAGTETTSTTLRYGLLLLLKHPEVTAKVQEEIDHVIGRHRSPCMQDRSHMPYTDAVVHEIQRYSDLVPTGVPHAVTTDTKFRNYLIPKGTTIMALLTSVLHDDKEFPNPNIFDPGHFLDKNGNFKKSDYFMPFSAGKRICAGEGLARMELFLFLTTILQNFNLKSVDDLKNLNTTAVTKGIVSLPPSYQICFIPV
Method: (§1) Depicted in table 2 is cytochrome P450 phenotyping and inhibition by ELP-004. The stability of ELP-004 was tested in the presence of recombinant enzymes CYP1A2, CYP2B6, CYP2C8, CYP2C9, CYP2C19, CYP2D6, and CYP3A4. ELP-004 (1 μM) was incubated with recombinant enzymes and NADPH. The amount of ELP-004 remaining at each timepoint was analyzed by LC-MS/MS. Incubations in control recombinant enzymes were also performed to assess non-enzymatic mediated stability. The intrinsic clearance of ELP-004 was determined. […] A decrease in the formation of the metabolite compared to vehicle control is used to calculate an IC50 value. Metabolite peak area ratio response as a percentage of vehicle control is plotted against the test compound concentration.

rats = experiment: 1x escalating oral toxicity in rats (IITRI); type: in vivo, rat
CYP3A4 = CYP3A4 (Homo sapiens, UniProt P08684); experiment: stability with recombinant CYP3A4; type: in vitro ADME; settings: recombinant CYP3A4, intrinsic clearance, read-out: Recombinant CYP CLINT
Method: as §1

[1] = test system: osteoclasts differentiated from Murine BMSMCs; experiment: matrix resorption (pit formation) on Osteo-Assay surface plates; type: cell-based; settings: irrespective of conditions, days 7, 14, 21
Method: Murine BMSMCs were differentiated to form osteoclasts on Osteo-Assay surface plates. The sizes of pits formed by the resorptive activity of osteoclasts differentiated under the three conditions were analyzed at days 7, 14, and 21. Average pit sizes of 10-30 pits are shown.

Murine BMSMCs = experiment: RANKL-induced osteoclastogenesis (TRAP, multinucleation, marker mRNA); type: cell-based; settings: RANKL (100 ng/ml)
Method: Murine BMSMCs were grown for up to 21 days in media supplemented with 50 ng/ml of m-CSF and 100 ng/mL RANKL. Each experiment was repeated a minimum of three times. Cells were fixed and stained for Tartrate Resistant Acid Phosphatase (TRAP) activity at days 1, 7, 14, and 21. The number of trap positive osteoclast-like cells (out of 100 cells) were counted for each time point, along with TRAP intensity, as shown in schematic A. In schematic B, the number of nuclei for each cell counted and the average number of nuclei per cell for 100 cells is shown at each time point.

Sequence of CYP3A4 (P08684 whole entry): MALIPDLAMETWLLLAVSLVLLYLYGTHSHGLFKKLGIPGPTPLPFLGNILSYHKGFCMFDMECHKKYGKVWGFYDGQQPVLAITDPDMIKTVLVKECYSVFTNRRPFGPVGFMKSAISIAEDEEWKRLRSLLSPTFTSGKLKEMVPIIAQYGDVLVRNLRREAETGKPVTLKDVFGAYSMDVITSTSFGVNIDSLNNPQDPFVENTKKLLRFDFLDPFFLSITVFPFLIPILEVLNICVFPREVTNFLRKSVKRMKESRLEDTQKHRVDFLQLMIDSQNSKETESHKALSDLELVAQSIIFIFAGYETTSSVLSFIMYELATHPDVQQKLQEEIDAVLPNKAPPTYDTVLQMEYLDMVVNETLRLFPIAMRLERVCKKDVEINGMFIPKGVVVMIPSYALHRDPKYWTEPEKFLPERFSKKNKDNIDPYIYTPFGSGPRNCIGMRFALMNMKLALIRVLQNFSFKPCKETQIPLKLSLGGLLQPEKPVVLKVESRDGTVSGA

Which microsomal CLint at 1 μM (CYP2C8) does the source give for `CCC(=O)N(C)c1ccc(Cl)c(Cl)c1` [ELP-004, N-(3,4-dichlorophenyl)-N-methylpropanamide] here?
Its microsomal CLint at 1 μM is 0.219 µL/min/mg.

What about the “oral LD50” value (rats) of the same compound?
Its value is over 2.5 g/kg body weight.

And the microsomal CLint at 1 μM (CYP3A4)?
Its microsomal CLint at 1 μM is 0.193 µL/min/mg.

What about the “matrix resorption activity of osteoclasts” value [1] of the same compound?
The value was “No resorption was observed”.

What about the TRAP activity (Murine BMSMCs) of the same compound?
The TRAP activity was “no significant effect”.

And the multinucleation (Murine BMSMCs)?
The multinucleation was “no significant effect”.

What about the “expression of osteoclast markers” value (Murine BMSMCs; RT-PCR days 7 and 14) of the same compound?
Its value is “no significant effect”.
